Values joined by “and” are separate entries in the source; they are usually repeats but may differ in a detail not shown here. Identical values can stand only once.
Key:
[1] = target: recombinant PKR1 (Homo sapiens (Human), UniProt Q8TCW9); assay: Aequorin-based luminescent Ca2+ mobilization assay, antagonist mode, PKR1; type: cell-based; details: CHO cells stably expressing aequorin and recombinant PKR1; challenge with recombinant PK2; Ki converted from IC50 by IC50/(1+[PK2]/EC50PK2)
Protocol: (§1) An aequorin-based luminescent assay for calcium mobilization was used to measure mobilization of intracellular Ca^2+ (Bullock et al., Mol Pharmacol 65, 582-588, 2004). Chinese hamster ovary (CHO) cells stably expressing photoprotein aequorin and recombinant PKR1 or PKR2 were tested by this method. Briefly, the cells were charged in Opti-MEM™ (Invitrogen) containing 8 μM of coelenterazine cp at 37° C. for 2 hours. Cells were detached by brief trypsinization and maintained in Hank's Balanced Salt Solution (HBSS) plus 10 mM HEPES (pH7.5) and 0.1% BSA at about 5×10^5 cells/ml. Luminescence measurements were made using a Berthold luminometer.
(§2) All compounds were diluted in HBSS plus 10 mM HEPES (pH7.5) and 0.1% BSA. To test the agonist activity, 100 μl of cells were injected into the tubes with 20 μl of compounds. For antagonist assays, 80 μl cells were incubated in the tubes with 20 μl different concentrations of antagonists at room temperature for 20 minutes, and then 100 μl of recombinant PK2 were injected. The IC50 obtained from the assays were then converted to Ki values using the formula: IC50/(1+[PK2]/EC50PK2).

[2] = target: recombinant PKR2 (Homo sapiens (Human), UniProt Q8NFJ6); assay: Aequorin-based luminescent Ca2+ mobilization assay, antagonist mode, PKR2; type: cell-based; details: CHO cells stably expressing aequorin and recombinant PKR2; challenge with recombinant PK2; Ki converted from IC50 by IC50/(1+[PK2]/EC50PK2)
recombinant PKR2, sequence (Q8NFJ6 whole entry): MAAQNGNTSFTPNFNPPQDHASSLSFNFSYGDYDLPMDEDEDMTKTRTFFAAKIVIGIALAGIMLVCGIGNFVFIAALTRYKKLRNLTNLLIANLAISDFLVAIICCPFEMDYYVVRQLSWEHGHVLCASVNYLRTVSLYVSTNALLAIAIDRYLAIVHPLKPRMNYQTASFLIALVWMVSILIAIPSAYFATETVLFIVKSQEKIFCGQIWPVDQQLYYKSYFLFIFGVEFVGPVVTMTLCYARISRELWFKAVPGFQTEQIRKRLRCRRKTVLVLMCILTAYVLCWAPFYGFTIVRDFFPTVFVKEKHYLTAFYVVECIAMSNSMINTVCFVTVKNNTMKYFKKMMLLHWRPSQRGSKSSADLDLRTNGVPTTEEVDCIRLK
Protocol: as §1, §2

[3] = tested on: mice; assay: Arousal level (EEG/EMG wake time) in mice after PK2 antagonist; type: in vivo
[4] = tested on: monkeys; assay: Sleep time in monkeys (wireless sleep tracker) after PK2 antagonist; type: in vivo, Macaca fascicularis
[5] = tested on: mice; assay: Locomotor activity in mice after PK2 antagonist; type: in vivo

recombinant PKR1, sequence (Q8TCW9 whole entry): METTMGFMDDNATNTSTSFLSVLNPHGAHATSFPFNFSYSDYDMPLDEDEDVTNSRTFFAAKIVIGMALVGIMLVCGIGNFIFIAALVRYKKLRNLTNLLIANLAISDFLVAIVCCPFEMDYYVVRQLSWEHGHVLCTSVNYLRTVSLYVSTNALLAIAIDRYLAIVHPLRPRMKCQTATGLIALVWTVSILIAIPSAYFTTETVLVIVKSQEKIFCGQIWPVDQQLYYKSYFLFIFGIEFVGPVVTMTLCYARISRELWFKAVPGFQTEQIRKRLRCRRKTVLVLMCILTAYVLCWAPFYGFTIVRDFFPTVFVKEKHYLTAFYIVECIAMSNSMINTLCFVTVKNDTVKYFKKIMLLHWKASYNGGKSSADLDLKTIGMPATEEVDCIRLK

Row | Compound | Ki [1] | further results
1 | CC(C)CN(Cc1cc(Cl)c2c(c1)OCCCO2)C(=O)C(C)CNCc1ccc(F)c(O)c1 (racemic) [(±)-2-Methyl-3-((3-hydroxy-4-fluoro)benzylamino)-N-(9-chloro-3,4-dihydro-2H-1,5-benzodioxepin-7-ylmethyl)-N-isobutylpropanamide] | 4.4 nM | –
2 | COc1cc(CNCC(C)C(=O)N(Cc2cc(Cl)c3c(c2)OCCCO3)CC(C)C)c(F)cc1F (racemic) [(±)-2-Methyl-3-((3-methoxy-4,6-difluoro)benzylamino)-N-(9-chloro-3,4-dihydro-2H-1,5-benzodioxepin-7-ylmethyl)-N-isobutylpropanamide] | 43.5 nM | –
3 | CC(C)CN(Cc1cc(Cl)c2c(c1)OCCCO2)C(=O)C(C)CNCc1cccc2nc[nH]c12 (racemic) [(±)-2-Methyl-3-(benzimidazol-4-ylmethylamino)-N-(9-chloro-3,4-dihydro-2H-1,5-benzodioxepin-7-ylmethyl)-N-isobutylpropanamide] | 5.6 nM | Ki [2]: 2.1 nM
4 | COc1ccccc1CN1CCO[C@@H](C(=O)N(Cc2cc(Cl)c3c(c2)OCCCO3)CC(C)C)C1 [(−)-(2R)-1-(2-Methoxybenzyl)-N-(9-chloro-3,4-dihydro-2H-1,5-benzodioxepin-7-ylmethyl)-N-isobutylmorpholine-2-carboxamide] | 1.49 nM | –
5 | COc1cccc(CN2CCO[C@@H](C(=O)N(Cc3cc(Cl)c4c(c3)OCCCO4)CC(C)C)C2)c1 [(−)-(2R)-1-(3-Methoxybenzyl)-N-(9-chloro-3,4-dihydro-2H-1,5-benzodioxepin-7-ylmethyl)-N-isobutylmorpholine-2-carboxamide] | 2.5 nM | –
6 | COc1cc(CN2CCO[C@@H](C(=O)N(Cc3cc(Cl)c4c(c3)OCCCO4)CC(C)C)C2)c(F)cc1F [(−)-(2R)-1-(4,6-Difluoro-3-methoxybenzyl)-N-(9-chloro-3,4-dihydro-2H-1,5-benzodioxepin-7-ylmethyl)-N-isobutylmorpholine-2-carboxamide] | 4.09 nM | –
7 | COc1cc(F)ccc1CN1CCO[C@@H](C(=O)N(Cc2cc(Cl)c3c(c2)OCCCO3)CC(C)C)C1 [(−)-(2R)-1-(4-Fluoro-2-methoxybenzyl)-N-(9-chloro-3,4-dihydro-2H-1,5-benzodioxepin-7-ylmethyl)-N-isobutylmorpholine-2-carboxamide] | 7.3 nM | –
8 | COc1cc(CN2CCO[C@@H](C(=O)N(Cc3cc(Cl)c4c(c3)OCCCO4)CC(C)C)C2)ccc1F [(−)-(2R)-1-(4-Fluoro-3-methoxybenzyl)-N-(9-chloro-3,4-dihydro-2H-1,5-benzodioxepin-7-ylmethyl)-N-isobutylmorpholine-2-carboxamide] | 2.6 nM and 5.4 nM | Ki [2]: 1.9 nM
9 | COc1ccc(F)cc1CN1CCO[C@@H](C(=O)N(Cc2cc(Cl)c3c(c2)OCCCO3)CC(C)C)C1 [(−)-(2R)-1-(5-Fluoro-2-methoxybenzyl)-N-(9-chloro-3,4-dihydro-2H-1,5-benzodioxepin-7-ylmethyl)-N-isobutylmorpholine-2-carboxamide] | 7.3 nM | –
10 | CC(C)CN(Cc1cc(Cl)c2c(c1)OCCCO2)C(=O)[C@H]1CN(Cc2cc(F)cc3nc[nH]c23)CCO1 [(−)-(2R)-1-(5-fluro-benzimidazol-4-ylmethyl)-N-(9-chloro-3,4-dihydro-2H-1,5-benzodioxepin-7-ylmethyl)-N-isobutylmorpholine-2-carboxamide] | 6.14 nM | –
11 | COc1ccc(F)c(CN2CCO[C@@H](C(=O)N(Cc3cc(Cl)c4c(c3)OCCCO4)CC(C)C)C2)c1 [(−)-(2R)-1-(6-Fluoro-3-methoxybenzyl)-N-(9-chloro-3,4-dihydro-2H-1,5-benzodioxepin-7-ylmethyl)-N-isobutylmorpholine-2-carboxamide] | 10 nM | –
12 | CC(C)CN(Cc1cc(Cl)c2c(c1)OCCCO2)C(=O)[C@H](C)CNCc1cccc2nc[nH]c12 [(−)-(2R)-2-Methyl-3-(benzimidazol-4-ylmethylamino)-N-(9-chloro-3,4-dihydro-2H-1,5-benzodioxepin-7-ylmethyl)-N-isobutylpropanamide] | 3.5 nM and 4.2 nM | –
13 | COc1c(F)cccc1CN1CC[C@@H](C(=O)N(Cc2cc(Cl)c3c(c2)OCCCO3)CC(C)C)C1 [(−)-(3R)-1-(3-Fluoro-2-methoxybenzyl)-N-(9-chloro-3,4-dihydro-2H-1,5-benzodioxepin-7-ylmethyl)-N-isobutylpyrrolidine-3-carboxamide] | 170 nM | –
14 | COc1cc(CN2CCC[C@@H](C(=O)N(Cc3cc(Cl)c4c(c3)OCCCO4)CC(C)C)C2)c(F)cc1F [(−)-(3R)-1-(4,6-Difluoro-3-methoxybenzyl)-N-(9-chloro-3,4-dihydro-2H-1,5-benzodioxepin-7-ylmethyl)-N-isobutylpiperidine-3-carboxamide] | 13.8 nM | –
15 | COc1cc(CN2CC[C@@H](C(=O)N(Cc3cc(Cl)c4c(c3)OCCCO4)CC(C)C)C2)c(F)cc1F [(−)-(3R)-1-(4,6-Difluoro-3-methoxybenzyl)-N-(9-chloro-3,4-dihydro-2H-1,5-benzodioxepin-7-ylmethyl)-N-isobutylpyrrolidine-3-carboxamide] | 6.14 nM | –
16 | COc1cc(F)ccc1CN1CC[C@@H](C(=O)N(Cc2cc(Cl)c3c(c2)OCCCO3)CC(C)C)C1 [(−)-(3R)-1-(4-Fluoro-2-methoxybenzyl)-N-(9-chloro-3,4-dihydro-2H-1,5-benzodioxepin-7-ylmethyl)-N-isobutylpyrrolidine-3-carboxamide] | 9.32 nM | –
17 | CC(C)CN(Cc1cc(Cl)c2c(c1)OCCCO2)C(=O)[C@@H]1CCN(Cc2ccc(F)c(O)c2)C1 [(−)-(3R)-1-(4-Fluoro-3-hydroxybenzyl)-N-(9-chloro-3,4-dihydro-2H-1,5-benzodioxepin-7-ylmethyl)-N-isobutylpyrrolidine-3-carboxamide] | 107 nM | –
18 | COc1ccc(F)cc1CN1CC[C@@H](C(=O)N(Cc2cc(Cl)c3c(c2)OCCCO3)CC(C)C)C1 [(−)-(3R)-1-(5-Fluoro-2-methoxybenzyl)-N-(9-chloro-3,4-dihydro-2H-1,5-benzodioxepin-7-ylmethyl)-N-isobutylpyrrolidine-3-carboxamide] | 9.3 nM and 6.9 nM | –
19 | CC(C)CN(Cc1cc(Cl)c2c(c1)OCCCO2)C(=O)[C@@H]1CCN(Cc2cc(F)cc3nc[nH]c23)C1 [(−)-(3R)-1-(5-fluro-benzimidazol-4-ylmethyl)-N-(9-chloro-3,4-dihydro-2H-1,5-benzodioxepin-7-ylmethyl)-N-isobutylpyrrolidine-3-carboxamide] | 71.3 nM | –
20 | COc1ccc(F)c(CN2CC[C@@H](C(=O)N(Cc3cc(Cl)c4c(c3)OCCCO4)CC(C)C)C2)c1 [(−)-(3R)-1-(6-Fluoro-3-methoxybenzyl)-N-(9-chloro-3,4-dihydro-2H-1,5-benzodioxepin-7-ylmethyl)-N-isobutylpyrrolidine-3-carboxamide] | 301 nM | –
21 | CC(C)CN(Cc1cc(Cl)c2c(c1)OCCCO2)C(=O)[C@@H]1CCCN(Cc2cccc3nc[nH]c23)C1 [(−)-(3R)-1-(benzimidazol-4-ylmethyl)-N-(9-chloro-3,4-dihydro-2H-1,5-benzodioxepin-7-ylmethyl)-N-isobutylpiperidine-3-carboxamide] | 97 nM | Ki [2]: 3 nM
22 | CC(C)CN(Cc1cc(Cl)c2c(c1)OCCCO2)C(=O)[C@@H]1CCN(Cc2cccc3nc[nH]c23)C1 [(−)-(3R)-1-(benzimidazol-4-ylmethyl)-N-(9-chloro-3,4-dihydro-2H-1,5-benzodioxepin-7-ylmethyl)-N-isobutylpyrrolidine-3-carboxamide] | 2.6 nM | Ki [2]: 1.7 nM
23 | COc1cc(CN2CC[C@@H](C(=O)N(Cc3cc(Cl)c4c(c3)OCCCO4)CC(C)C)C2)ccc1F [PKRA83, (3R)-1-(4-Fluoro-3-methoxybenzyl)-N-(9-chloro-3,4-dihydro-2H-1,5-benzodioxepin-7-ylmethyl)-N-isobutylpyrrolidine-3-carb oxamide] | – | wakefulness (wake time) ([3]; 40 mg/kg intraperitoneally at ZT6, vs vehicle (FIG. 6B)): significantly increased; wake time ([3]; ocular topic application at day time, P<0.05 paired t-test (FIG. 14)): significantly increased; increase of the sleep time ([4]; 10 mg/kg intramuscularly at ZT10, vs vehicle (FIG. 6C)): > 70 min; sleep time ([4]; nasal topic application, P<0.05 paired t-test (FIG. 19)): significantly increased; sleep time ([4]; ocular topic application, P<0.05 paired t-test (FIG. 15)): significantly increased; locomotor activity ([5]; mice, 40 mg/kg intraperitoneally at ZT6, vs vehicle (FIG. 6A)): significantly increased; locomotor activity ([5]; wild type mice, ocular topic delivery during the late night, vs control (FIG. 13)): increased
